Where a SMILES comes first, the peptide text is derived from it. [ ]: non-standard residue; d: D form. ξ: configuration not given here. Phe(4-F) = N[C@@H](Cc1ccc(F)cc1)C(=O)O; Aib = CC(C)(N)C(=O)O; ξDap = NCC(N)C(=O)O
What was measured:
Nociceptin receptor [1] = molecular target: Nociceptin receptor (Rattus norvegicus, UniProt P35370); test: Antagonist activity at NOP receptor in Sprague-Dawley rat vas deferens assessed as effect on electrically stimulated contractions
Nociceptin receptor [2] = molecular target: Nociceptin receptor (Mus musculus, UniProt P35377); test: Antagonist activity at NOP receptor in Swiss mouse vas deferens […]
Nociceptin receptor (Mus musculus, UniProt P35377), sequence (P35377 whole entry): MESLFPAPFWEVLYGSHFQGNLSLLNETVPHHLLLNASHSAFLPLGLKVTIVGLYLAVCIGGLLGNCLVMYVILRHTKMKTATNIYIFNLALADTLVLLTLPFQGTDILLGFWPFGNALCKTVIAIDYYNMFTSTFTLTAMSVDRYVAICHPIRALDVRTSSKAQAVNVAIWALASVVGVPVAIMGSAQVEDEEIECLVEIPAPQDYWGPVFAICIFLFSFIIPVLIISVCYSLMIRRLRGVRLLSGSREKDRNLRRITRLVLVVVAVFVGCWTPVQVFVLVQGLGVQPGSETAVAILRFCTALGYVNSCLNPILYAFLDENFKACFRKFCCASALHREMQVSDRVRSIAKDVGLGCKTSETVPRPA

Nociceptin receptor [3] = molecular target: Nociceptin receptor (Cavia porcellus, UniProt P47748); test: Antagonist activity at NOP receptor in Albino guinea pig ileum assessed as effect on electrically stimulated contractions
Nociceptin receptor (Cavia porcellus, UniProt P47748), sequence (P47748 whole entry): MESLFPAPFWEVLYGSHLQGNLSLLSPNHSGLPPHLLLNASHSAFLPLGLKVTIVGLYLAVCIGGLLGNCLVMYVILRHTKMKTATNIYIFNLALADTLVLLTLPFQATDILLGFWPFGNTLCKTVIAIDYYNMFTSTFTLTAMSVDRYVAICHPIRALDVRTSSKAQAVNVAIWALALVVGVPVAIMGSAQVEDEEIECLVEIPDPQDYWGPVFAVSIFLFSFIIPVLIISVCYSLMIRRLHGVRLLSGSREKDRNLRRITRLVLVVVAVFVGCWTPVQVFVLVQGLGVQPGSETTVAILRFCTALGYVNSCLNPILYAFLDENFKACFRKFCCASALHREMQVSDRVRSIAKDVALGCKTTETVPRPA

Nociceptin receptor (Rattus norvegicus, UniProt P35370), sequence (P35370 whole entry): as the sequence (P35377 whole entry) above, with F9Y, A335S counted along it

C[C@H](NC(=O)[C@H](CO)NC(=O)[C@H](CCCCN)NC(=O)[C@H](CCCN=C(N)N)NC(=O)C(C)(C)NC(=O)CNC(=O)[C@@H](NC(=O)[C@H](Cc1ccc(F)cc1)NC(=O)CNC(=O)C(CN)NC(=O)[C@@H](N)Cc1ccccc1)[C@@H](C)O)C(=O)N[C@@H](CCCN=C(N)N)C(=O)N[C@@H](CCCCN)C(=O)N[C@@H](CCCN=C(N)N)C(=O)N[C@@H](CCCCN)C(=O)N[C@@H](CC(N)=O)C(=O)N[C@@H](CCC(N)=O)C(N)=O (stereo partly drawn) (H-F[ξDap]G[Phe(4-F)]TG[Aib]RKSARKRKNQ-NH2)
Kd (Nociceptin receptor [1]): 0.603 nM | Kd (Nociceptin receptor [2]): 0.794 nM | Kd (Nociceptin receptor [3]): 0.316 nM
